Values quoted from earlier work in US5846971A, “Oral antifungal composition” (Schering Corporation, priority 1997, dated 1998).

Tests used:
[1] = system: Candida; details: in suspensions
[2] = system: Aspergillis; details: in suspensions
[3] = system: Cryptococcus; details: in suspensions

Which antifungal activity [1] does the source give for CC[C@@H]([C@H](C)O)n1ncn(-c2ccc(N3CCN(c4ccc(OC[C@@H]5CO[C@@](Cn6cncn6)(c6ccc(F)cc6F)C5)cc4)CC3)cc2)c1=O [the antifungal compound, (-)-(2R-cis)-4-[4-[4-[4-[[-5-(2,4-difluorophenyl)-tetrahydro-5-(1H-1,2,4-triazol-1-ylmethyl)furan-3-yl]methoxy]phenyl]-1-piperazinyl]phenyl]-2,-4-dihydro-2-[(S)-1-ethyl-2(S)-hydroxypropyl]-3H-1,2,4-triazol-3-one] here?
The antifungal activity was “potent antifungal activity”.

What about the antifungal activity [2] of the same molecule?
Its antifungal activity is “potent antifungal activity”.

And the water solubility?
Its water solubility is “extremely low water solubility”.

What about the antifungal activity [3] of the same molecule?
Its antifungal activity is “potent antifungal activity”.
